Data as given in PubChem BioAssay AID602130 (Sanford-Burnham Center for Chemical Genomics, 2011).
Calls of active or inactive are those of the source.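 How the source made its calls: active means IC50 at or below 20 µM; inactive means the rest.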

These compounds were tested against Glucose-6-phosphate 1-dehydrogenase (Homo sapiens) (UniProt P11413) (assay: human G6PD enzyme inhibition selectivity, SAR follow-up, selectivity assay for PfG6PD antimalarial inhibitor project, biochemical, fluorescence, dose response, set 3 (AID 602130)). Settings: NADPH resazurin-diaphorase fluorescence.
Sequence of Glucose-6-phosphate 1-dehydrogenase (Homo sapiens) (P11413 whole entry, looked up): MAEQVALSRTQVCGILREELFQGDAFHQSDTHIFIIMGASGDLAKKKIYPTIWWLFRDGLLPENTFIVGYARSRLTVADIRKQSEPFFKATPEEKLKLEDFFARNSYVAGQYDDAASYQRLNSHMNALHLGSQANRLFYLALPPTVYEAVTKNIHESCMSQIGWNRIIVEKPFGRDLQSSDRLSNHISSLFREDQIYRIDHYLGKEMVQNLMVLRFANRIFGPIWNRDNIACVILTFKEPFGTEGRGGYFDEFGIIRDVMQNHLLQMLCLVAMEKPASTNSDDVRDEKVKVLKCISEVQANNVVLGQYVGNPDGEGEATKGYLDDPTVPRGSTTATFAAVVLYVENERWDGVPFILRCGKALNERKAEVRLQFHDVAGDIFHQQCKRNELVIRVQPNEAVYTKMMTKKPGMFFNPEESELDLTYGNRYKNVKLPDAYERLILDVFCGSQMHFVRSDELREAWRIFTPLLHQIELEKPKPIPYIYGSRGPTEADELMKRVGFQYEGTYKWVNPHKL

IC50, inactive:
CCCN1CCCC1CNC(=O)c1ccc2c(c1)NC(=O)/C(=C/c1ccccc1F)S2 (centres undefined) > 80 µM
CCN1CCC[C@H]1CNC(=O)c1ccc2c(c1)NC(=O)c1ccccc1S2 > 80 µM
NC1CCN(C(=O)c2ccc3c(c2)NC(=O)/C(=C/c2ccccc2F)S3)C1 (centres undefined) > 80 µM
NCCNC(=O)c1ccc2c(c1)NC(=O)c1ccccc1S2 > 80 µM
O=C(NCCN1CCCCC1)c1ccc2c(c1)NC(=O)c1ccccc1S2 > 80 µM
CCN1CCCC1CNC(=O)c1ccc2c(c1)NC(=O)/C(=C/c1c(F)cccc1F)S2 (centres undefined) > 80 µM
CCN(CC)CCNC(=O)c1ccc2c(c1)NC(=O)/C(=C/c1ccccc1F)S2 > 80 µM
CCN1CCC[C@@H]1CNC(=O)c1ccc2c(c1)NC(=O)/C(=C/c1ccccc1F)S2 > 80 µM
CN(C)c1ccccc1CNC(=O)c1ccc2c(c1)NC(=O)/C(=C/c1ccccc1F)S2 > 80 µM
NC1CCN(C(=O)c2ccc3c(c2)NC(=O)c2ccccc2S3)C1 (centres undefined) > 80 µM
CCN1CCCC1CNC(=O)c1ccc2c(c1)NC(=O)/C(=C/c1cccc(F)c1F)S2 (centres undefined) > 80 µM
O=C(NCCN1CCOCC1)c1ccc2c(c1)NC(=O)c1ccccc1S2 > 80 µM
CCN1CCC[C@H]1CNC(=O)c1ccc2c(c1)NC(=O)/C(=C/c1ccccc1F)S2 > 80 µM
CCN1CCC[C@@H]1CNC(=O)c1ccc2c(c1)NC(=O)c1ccccc1S2 > 80 µM
CCN1CCCC1CNC(=O)c1ccc2c(c1)NC(=O)/C(=C/c1ccc3ccccc3c1)S2 (centres undefined) > 80 µM
CCN1CCCC1CNC(=O)c1ccc2c(c1)NC(=O)/C(=C/c1ccc(F)cc1)S2 (centres undefined) > 80 µM
O=C(NCCNC1CCCCC1)c1ccc2c(c1)NC(=O)c1ccccc1S2 > 80 µM
CCC(C)N(CCNC(=O)c1ccc2c(c1)NC(=O)c1ccccc1S2)C1CCCCC1 (centres undefined) > 80 µM
CC(C)(C)OC(=O)N1CCCC1CNC(=O)c1ccc2c(c1)NC(=O)/C(=C/c1ccccc1F)S2 (centres undefined) > 80 µM
O=C1Nc2cc(C(=O)NCC3CCCN3)ccc2S/C1=C\c1ccccc1F (centres undefined) > 80 µM
CCN1CCCC1CNC(=O)c1ccc2c(c1)NC(=O)/C(=C/c1cccc(F)c1)S2 (centres undefined) > 80 µM
CCN(CC)CCCC(C)Nc1ccnc2cc(Cl)ccc12 (centres undefined) > 80 µM
CCN1CCCC1CNC(=O)c1ccc2c(c1)NC(=O)C(Cc1ccccc1F)S2 (centres undefined) > 80 µM
CCC(C)N1CCCC1CNC(=O)c1ccc2c(c1)NC(=O)c1ccccc1S2 (centres undefined) > 80 µM
